Broadly, the inhibition is the change of the read-out against control, counted positive when it falls.

Holding throughout (test): Kinase panel study
Holding throughout (assay type): biochemical
Holding throughout (settings): read-out: Percentage of inhibition; for inhibition at 1 µM: 1000nM; for inhibition at 10 µM: 10000nM

The target of experiment [1] is T1, EPHA5 (Homo sapiens, UniProt P54756).
T1 construct: purchased Thermo Fisher Scientific
Put shortly: (§1)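 Outsourced panel screen. Format: ZLyte or Adapta, run per the manufacturer's procedures. Read-out: inhibition (%) at a single dose of 10 µM or 1 µM; IC50s also generated.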

The target in experiment [2] is T2, CSNK1A1 (CK1 alpha 1) (Homo sapiens, UniProt P48729).
T2 construct: purchased Thermo Fisher Scientific
The method in brief: as §1

Experiment [3] addresses T3, PRKX (Homo sapiens, UniProt P51817).
T3 construct: purchased Thermo Fisher Scientific
T3 sequence (P51817 1-358): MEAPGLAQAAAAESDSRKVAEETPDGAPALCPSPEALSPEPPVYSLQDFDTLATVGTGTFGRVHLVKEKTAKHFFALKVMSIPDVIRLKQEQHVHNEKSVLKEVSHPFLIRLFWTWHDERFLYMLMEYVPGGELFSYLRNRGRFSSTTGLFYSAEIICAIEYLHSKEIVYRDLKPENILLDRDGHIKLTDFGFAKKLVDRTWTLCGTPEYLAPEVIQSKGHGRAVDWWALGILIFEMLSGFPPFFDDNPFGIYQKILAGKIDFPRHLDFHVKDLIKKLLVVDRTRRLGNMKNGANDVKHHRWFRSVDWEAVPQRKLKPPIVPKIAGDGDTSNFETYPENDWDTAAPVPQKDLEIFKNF
Put shortly: as §1

For experiment [4], the target named is T4, ERBB2 (HER2) (Homo sapiens, UniProt P04626).
T4 construct: purchased Thermo Fisher Scientific
Put shortly: as §1

The target in experiment [5] is T5, NEK2 (Homo sapiens, UniProt P51955).
T5 construct: purchased Thermo Fisher Scientific
T5 sequence (P51955 1-445): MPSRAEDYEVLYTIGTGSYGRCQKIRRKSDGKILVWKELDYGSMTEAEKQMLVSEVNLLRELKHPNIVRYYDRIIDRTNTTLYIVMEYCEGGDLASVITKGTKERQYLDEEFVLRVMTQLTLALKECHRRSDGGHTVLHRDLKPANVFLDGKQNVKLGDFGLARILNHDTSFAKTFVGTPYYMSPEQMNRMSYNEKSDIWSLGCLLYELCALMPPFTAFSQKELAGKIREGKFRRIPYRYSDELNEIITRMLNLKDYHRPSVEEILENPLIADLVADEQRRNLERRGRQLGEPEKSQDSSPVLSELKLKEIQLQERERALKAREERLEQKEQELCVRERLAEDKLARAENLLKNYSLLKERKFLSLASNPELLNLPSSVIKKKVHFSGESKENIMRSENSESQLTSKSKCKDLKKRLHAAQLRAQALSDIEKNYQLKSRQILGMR
Put shortly: as §1

Experiment [6] concerns the target T6, EGFR (ErbB1) T790M L858R (Homo sapiens, UniProt P00533, L858R/T790M).
T6 construct: purchased Thermo Fisher Scientific
Put shortly: as §1

Experiment [7] deals with T7, RET V804E (Homo sapiens, UniProt P07949, V804E).
T7 construct: purchased Thermo Fisher Scientific
T7 sequence (P07949 29-1114 V804E): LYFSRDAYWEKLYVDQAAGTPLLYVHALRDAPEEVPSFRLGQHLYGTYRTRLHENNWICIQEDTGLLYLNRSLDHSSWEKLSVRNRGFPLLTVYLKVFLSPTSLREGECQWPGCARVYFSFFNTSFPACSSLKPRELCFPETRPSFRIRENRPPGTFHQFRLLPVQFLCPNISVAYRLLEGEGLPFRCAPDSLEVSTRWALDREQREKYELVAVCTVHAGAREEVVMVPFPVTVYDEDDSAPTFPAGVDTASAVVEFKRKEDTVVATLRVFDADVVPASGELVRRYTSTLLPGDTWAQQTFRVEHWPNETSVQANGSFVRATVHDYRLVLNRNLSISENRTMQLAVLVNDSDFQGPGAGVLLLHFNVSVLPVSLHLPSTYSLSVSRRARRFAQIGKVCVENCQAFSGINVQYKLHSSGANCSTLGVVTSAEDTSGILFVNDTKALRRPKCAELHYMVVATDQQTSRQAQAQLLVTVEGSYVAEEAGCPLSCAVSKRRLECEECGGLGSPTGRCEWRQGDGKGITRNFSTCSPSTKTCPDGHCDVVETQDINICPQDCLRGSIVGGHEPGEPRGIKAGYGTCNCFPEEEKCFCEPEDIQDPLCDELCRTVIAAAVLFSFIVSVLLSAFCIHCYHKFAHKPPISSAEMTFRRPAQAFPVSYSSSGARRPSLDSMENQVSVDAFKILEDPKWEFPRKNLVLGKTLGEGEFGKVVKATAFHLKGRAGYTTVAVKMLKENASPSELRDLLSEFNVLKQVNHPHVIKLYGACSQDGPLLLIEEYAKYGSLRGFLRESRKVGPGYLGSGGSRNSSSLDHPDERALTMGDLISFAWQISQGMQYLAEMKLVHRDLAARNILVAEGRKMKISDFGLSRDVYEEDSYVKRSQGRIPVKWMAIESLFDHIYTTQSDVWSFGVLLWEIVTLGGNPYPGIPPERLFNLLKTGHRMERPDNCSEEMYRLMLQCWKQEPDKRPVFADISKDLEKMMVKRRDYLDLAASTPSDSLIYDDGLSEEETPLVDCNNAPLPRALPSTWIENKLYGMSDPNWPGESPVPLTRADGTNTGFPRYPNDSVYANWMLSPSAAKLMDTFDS
The method in brief:
as §1

In experiment [8] the target is T8, CSNK1G2 (CK1 gamma 2) (Homo sapiens, UniProt P78368).
T8 construct: purchased Thermo Fisher Scientific
Put shortly: as §1

Experiment [9] deals with T9, CHEK1 (CHK1) (Homo sapiens, UniProt O14757).
T9 construct: purchased Thermo Fisher Scientific
T9 sequence (O14757 1-476): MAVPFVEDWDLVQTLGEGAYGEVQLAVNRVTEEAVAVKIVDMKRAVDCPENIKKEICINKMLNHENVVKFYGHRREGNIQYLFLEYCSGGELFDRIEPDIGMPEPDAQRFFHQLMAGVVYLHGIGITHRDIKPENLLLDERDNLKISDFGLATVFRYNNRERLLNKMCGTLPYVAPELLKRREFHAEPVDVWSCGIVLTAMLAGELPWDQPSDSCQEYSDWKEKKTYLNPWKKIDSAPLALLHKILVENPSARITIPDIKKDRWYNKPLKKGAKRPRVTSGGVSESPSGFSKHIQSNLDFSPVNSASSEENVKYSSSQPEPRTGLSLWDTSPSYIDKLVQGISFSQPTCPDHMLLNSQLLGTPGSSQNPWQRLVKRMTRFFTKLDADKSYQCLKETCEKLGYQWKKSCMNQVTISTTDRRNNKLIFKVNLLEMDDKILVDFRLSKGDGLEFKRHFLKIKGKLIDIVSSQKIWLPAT
The method in brief: as §1

The target in experiment [10] is T10, NTRK2 (TRKB) (Homo sapiens, UniProt Q16620).
T10 construct: purchased Thermo Fisher Scientific
T10 sequence (Q16620 32-822): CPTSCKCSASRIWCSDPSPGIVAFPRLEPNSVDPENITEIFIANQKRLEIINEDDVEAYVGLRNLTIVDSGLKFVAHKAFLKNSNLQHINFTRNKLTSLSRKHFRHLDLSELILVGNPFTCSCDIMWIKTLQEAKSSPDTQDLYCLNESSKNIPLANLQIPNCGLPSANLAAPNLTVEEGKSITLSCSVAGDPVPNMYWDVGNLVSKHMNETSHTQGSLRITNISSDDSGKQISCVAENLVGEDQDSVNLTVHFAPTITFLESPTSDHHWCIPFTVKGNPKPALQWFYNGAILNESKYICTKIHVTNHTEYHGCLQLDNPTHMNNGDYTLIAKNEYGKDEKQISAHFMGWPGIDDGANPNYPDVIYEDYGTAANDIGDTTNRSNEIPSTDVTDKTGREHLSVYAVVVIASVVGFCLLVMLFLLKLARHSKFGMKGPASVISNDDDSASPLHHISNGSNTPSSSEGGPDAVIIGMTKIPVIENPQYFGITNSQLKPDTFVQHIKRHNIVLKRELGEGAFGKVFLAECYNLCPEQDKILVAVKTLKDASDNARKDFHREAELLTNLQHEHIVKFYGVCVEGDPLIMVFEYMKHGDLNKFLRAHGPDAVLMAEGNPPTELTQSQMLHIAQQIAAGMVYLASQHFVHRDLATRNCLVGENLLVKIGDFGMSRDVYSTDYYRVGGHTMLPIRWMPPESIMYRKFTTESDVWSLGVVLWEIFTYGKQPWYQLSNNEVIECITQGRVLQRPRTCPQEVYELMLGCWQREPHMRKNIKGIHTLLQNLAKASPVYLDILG
Put shortly:
as §1

Experiment [11] concerns the target T11, FER (Homo sapiens, UniProt P16591).
T11 construct: purchased Thermo Fisher Scientific
Put shortly: as §1

Experiment [12] concerns the target T12, CAMK2A (CaMKII alpha) (Homo sapiens, UniProt Q9UQM7).
T12 construct: purchased Thermo Fisher Scientific
The method in brief:
as §1

T1 sequence (P54756 25-1037): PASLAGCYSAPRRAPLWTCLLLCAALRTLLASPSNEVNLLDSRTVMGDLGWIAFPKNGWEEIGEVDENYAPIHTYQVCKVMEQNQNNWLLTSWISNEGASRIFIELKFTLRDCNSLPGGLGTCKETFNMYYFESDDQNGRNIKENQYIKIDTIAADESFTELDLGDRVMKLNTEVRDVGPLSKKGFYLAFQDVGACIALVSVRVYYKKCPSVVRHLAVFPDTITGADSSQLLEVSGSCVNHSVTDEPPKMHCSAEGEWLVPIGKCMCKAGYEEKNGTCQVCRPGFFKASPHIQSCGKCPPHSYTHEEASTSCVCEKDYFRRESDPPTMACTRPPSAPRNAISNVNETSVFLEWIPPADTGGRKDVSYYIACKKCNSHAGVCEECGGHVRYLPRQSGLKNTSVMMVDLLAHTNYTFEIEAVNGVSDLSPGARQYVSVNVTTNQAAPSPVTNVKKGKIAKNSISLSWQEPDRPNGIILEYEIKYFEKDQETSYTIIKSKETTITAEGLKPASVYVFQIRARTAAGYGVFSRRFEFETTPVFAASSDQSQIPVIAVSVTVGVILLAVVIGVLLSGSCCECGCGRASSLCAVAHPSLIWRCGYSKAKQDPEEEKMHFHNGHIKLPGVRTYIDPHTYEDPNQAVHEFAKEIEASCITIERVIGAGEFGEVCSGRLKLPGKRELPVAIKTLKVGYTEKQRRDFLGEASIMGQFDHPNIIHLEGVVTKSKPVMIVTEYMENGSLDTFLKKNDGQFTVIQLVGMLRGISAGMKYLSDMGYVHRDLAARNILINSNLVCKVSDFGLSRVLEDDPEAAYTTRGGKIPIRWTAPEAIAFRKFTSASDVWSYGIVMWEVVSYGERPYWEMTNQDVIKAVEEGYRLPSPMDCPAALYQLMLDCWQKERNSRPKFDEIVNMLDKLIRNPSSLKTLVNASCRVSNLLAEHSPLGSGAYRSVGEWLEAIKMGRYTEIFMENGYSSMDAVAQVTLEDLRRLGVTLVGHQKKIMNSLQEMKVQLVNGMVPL
T11 sequence (P16591 whole entry): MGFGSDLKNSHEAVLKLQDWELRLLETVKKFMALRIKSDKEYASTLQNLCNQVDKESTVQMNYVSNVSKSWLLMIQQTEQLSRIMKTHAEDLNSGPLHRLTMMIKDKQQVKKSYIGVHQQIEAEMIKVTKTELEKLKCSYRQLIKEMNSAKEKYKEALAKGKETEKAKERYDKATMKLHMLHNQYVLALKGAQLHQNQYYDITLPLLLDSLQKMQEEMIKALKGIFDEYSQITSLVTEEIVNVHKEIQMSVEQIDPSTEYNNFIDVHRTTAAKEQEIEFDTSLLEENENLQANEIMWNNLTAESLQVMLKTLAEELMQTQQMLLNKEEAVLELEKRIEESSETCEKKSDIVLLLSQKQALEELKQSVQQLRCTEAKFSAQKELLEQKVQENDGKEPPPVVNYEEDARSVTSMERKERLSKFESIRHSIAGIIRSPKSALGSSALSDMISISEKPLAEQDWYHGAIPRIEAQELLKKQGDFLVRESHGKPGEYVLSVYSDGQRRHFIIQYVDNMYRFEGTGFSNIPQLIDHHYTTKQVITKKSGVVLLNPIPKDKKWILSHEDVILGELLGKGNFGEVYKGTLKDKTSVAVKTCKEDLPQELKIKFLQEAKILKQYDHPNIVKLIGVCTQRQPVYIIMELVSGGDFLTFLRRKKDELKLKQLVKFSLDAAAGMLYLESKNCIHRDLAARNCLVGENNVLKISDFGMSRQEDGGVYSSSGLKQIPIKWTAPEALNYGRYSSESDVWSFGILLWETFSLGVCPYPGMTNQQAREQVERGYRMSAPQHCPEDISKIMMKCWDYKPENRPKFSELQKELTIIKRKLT
T6 sequence (P00533 25-1210 T790M/L858R): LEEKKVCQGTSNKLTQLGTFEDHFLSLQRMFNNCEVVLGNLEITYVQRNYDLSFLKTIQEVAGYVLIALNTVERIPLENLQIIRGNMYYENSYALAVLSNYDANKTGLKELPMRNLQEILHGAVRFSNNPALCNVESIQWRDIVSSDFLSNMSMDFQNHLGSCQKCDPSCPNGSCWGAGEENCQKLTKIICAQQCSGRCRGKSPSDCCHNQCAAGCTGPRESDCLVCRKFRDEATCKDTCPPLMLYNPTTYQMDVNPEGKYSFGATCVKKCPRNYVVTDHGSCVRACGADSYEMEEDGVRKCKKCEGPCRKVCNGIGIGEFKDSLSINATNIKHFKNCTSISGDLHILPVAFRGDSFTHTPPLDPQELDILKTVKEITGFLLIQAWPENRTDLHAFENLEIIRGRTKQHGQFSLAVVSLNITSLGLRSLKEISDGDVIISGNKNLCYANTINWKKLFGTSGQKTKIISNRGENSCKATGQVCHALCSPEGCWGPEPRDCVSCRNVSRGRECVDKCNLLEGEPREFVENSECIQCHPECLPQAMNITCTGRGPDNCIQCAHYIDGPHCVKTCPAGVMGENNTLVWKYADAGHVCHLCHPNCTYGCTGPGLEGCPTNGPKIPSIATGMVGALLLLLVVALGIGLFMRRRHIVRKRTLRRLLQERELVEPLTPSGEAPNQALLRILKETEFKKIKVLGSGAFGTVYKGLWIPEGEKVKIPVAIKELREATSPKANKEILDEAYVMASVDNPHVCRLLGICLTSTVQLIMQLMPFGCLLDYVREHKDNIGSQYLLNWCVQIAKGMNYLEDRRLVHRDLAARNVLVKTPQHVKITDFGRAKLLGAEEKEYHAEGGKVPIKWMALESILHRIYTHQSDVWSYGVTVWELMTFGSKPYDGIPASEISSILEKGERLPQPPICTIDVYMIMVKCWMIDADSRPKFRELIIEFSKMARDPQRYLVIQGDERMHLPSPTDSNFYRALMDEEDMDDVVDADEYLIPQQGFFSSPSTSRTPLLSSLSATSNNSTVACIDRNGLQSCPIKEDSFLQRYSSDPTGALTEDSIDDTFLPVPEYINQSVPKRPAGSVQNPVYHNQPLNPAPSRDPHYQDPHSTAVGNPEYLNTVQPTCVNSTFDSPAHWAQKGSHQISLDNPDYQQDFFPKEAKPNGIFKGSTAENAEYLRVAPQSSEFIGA

In the case of `COc1ccc2c(c1OC)c(=O)n1c3ccc(O)cc3c3ccnc2c31` [MW01, 5-Hydroxy-10,11-dimethoxy-9H-benzo[c]indolo[3,2,1-ij][1,5]naphthyridin-9-one], the inhibition at 1 µM was -4% in [1]; 5% in experiment [2]; 22% in experiment [3]; 2% in [4]; -4% in [5]; 9% in experiment [6]. For the same compound, the inhibition at 1 µM in experiment [7] came to 5%; in [8], 22%; in [9], 4%; in experiment [10], 35%; in [11], 11%; in experiment [12], 12%. Also, the inhibition at 10 µM in experiment [1] was determined as 7%; in experiment [2] it was 17%; in experiment [3], 16%; in experiment [4] it was 4%; in experiment [5], 0%; in experiment [6], 29%. Besides, the inhibition at 10 µM is 17% in experiment [7]; 41% in [8]; 13% in experiment [9]; 68% in experiment [10]; 25% in [11]; 39% in [12].
For the compound `COc1ccc2cc3c(N)nn(C(=O)c4cccc(N(C)C)c4)c3nc2c1` [MW05, (3-Amino-7-methoxypyrazolo[3,4-b]quinolin-1-yl)-[3-(dimethylamino)phenyl]methanone], the inhibition at 1 µM in [1] is -8%; in experiment [2], 2%; in [3], 8%; in [4], -5%; in [5] it was -3%; in experiment [6], -5%. In addition, the inhibition at 1 µM turned out to be 1% in experiment [7]; 4% in [8]; 16% in experiment [9]; 13% in experiment [10]; 7% in experiment [11]; 9% in experiment [12]. The inhibition at 10 µM in [1] is -16%; in experiment [2], 1%; in experiment [3], -2%; in experiment [4], -19%; in experiment [5], 1%; in [6], 10%. Also, the inhibition at 10 µM in [7] was -7%; in experiment [8], 13%; in experiment [9] it was 27%; in experiment [10], 42%; in experiment [11] it was 0%; in experiment [12] it was 16%.

(Values after EP4467141A1, “PYRAZOLO-QUINOLINES AS SELECTIVE INHIBITORS OF GENOTOXIC STRESS-INDUCED IKK/NF- KB PATHWAYS FOR CANCER THERAPY” (Max-Delbrück-Centrum für Molekulare Medizin in der …, priority 2023, dated 2024).)
